Where a SMILES comes first, the peptide text is derived from it. Bridges are numbered along the chain shown (N, C = ends). [ ]: non-standard residue; d: D form. The star is where a group is joined. ξ: configuration not given here. Bip(4'-NHAc) = CC(=O)Nc1ccc(-c2ccc(C[C@H](N)C(=O)O)cc2)cc1; Phe(3-CF3) = N[C@@H](Cc1cccc(C(F)(F)F)c1)C(=O)O; Ala(morpholin-4-yl) = N[C@@H](CN1CCOCC1)C(=O)O; Phe(4-COOH) = N[C@@H](Cc1ccc(C(=O)O)cc1)C(=O)O; Bip = N[C@@H](Cc1ccc(-c2ccccc2)cc1)C(=O)O; Phe(3-Me) = Cc1cccc(C[C@H](N)C(=O)O)c1; Val(3-OH) = CC(C)(O)[C@H](N)C(=O)O; 4Pal = N[C@@H](Cc1ccncc1)C(=O)O; Cha = N[C@@H](CC1CCCCC1)C(=O)O; Cit = NC(=O)NCCC[C@H](N)C(=O)O; Ile(3ξ) = CCC(C)[C@H](N)C(=O)O; Thr(3ξ) = CC(O)[C@H](N)C(=O)O; Phg = N[C@H](C(=O)O)c1ccccc1; hSer = N[C@@H](CCO)C(=O)O; Carboxymethyl = O=C(O)C*; Nle = CCCC[C@H](N)C(=O)O; Orn = NCCC[C@H](N)C(=O)O; Pra = C#CC[C@H](N)C(=O)O; Dab = NCC[C@H](N)C(=O)O; Dap = NC[C@H](N)C(=O)O
These molecules were tested against T1, human PD-1 / PD-L1-Ig binding on Jurkat cell line over-expressing human PD-1 (Jurkat-PD-1) (Homo sapiens, UniProt Q15116) (assay: Jurkat-PD-1 Cell Binding High-Content Screening Assay (CBA)). Settings: Jurkat-PD-1 cells, PE-labeled PD-L1-Ig 20 nM final; read-out: Jurkat HPD1_PDL1 IC50.
T1 construct: expressed in transfected cells; host or cells: Jurkat
T1 sequence (Q15116 25-288): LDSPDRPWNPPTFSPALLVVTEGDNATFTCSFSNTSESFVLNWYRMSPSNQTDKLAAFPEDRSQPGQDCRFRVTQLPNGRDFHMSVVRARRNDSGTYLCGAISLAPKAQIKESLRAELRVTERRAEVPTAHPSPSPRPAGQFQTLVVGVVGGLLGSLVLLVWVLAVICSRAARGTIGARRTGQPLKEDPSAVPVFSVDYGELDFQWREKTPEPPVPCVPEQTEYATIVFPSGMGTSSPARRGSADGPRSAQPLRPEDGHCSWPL
Type: cell-based
Method in brief: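 Compounds were preincubated with Jurkat-hPD-1 cells in DMEM plus 10% fetal calf serum for 2 h at 37° C. Phycoerythrin-labeled PD-L1-Ig (20 nM final) was then added for 1 hour. Cells were fixed in 4% paraformaldehyde with Hoechst 33342, and bound fluorescence was quantified by high-content imaging.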

Row | SMILES | IC50 [µM]
1 | C#CC[C@@H]1NC(=O)[C@H](CC2CCCCC2)NC(=O)[C@H](CCN)NC(=O)[C@@H](CC(C)C)NC(=O)[C@H](CCCN)NC(=O)[C@H](C(C)C)NC(=O)[C@H](Cc2ccc(-c3ccccc3)cc2)NC(=O)[C@H](C(C)C)NC(=O)[C@H](Cc2cccc(C)c2)NC(=O)[C@H](CC(=O)O)NC(=O)[C@H](Cc2ccc(OCC(=O)O)cc2)NC(=O)[C@H](CN)NC(=O)CSC[C@@H](C(N)=O)NC(=O)[C@H]([C@@H](C)O)NC1=O [Compound 2013] ({CH2CO}-[Dap]Y(Carboxymethyl)D[Phe(3-Me)]V[Bip]V[Orn][dL][Dab][Cha][Pra]TC-NH2; thioether N-14) | 0.0212
2 | CCCC[C@@H]1NC(=O)[C@H](CCN)NC(=O)[C@@H](CC(C)C)NC(=O)[C@H](CCCN)NC(=O)[C@H](CCCNC(N)=O)NC(=O)[C@H](Cc2ccc(-c3ccccc3)cc2)NC(=O)[C@H](CC(C)C)NC(=O)[C@H](Cc2cccc(C)c2)NC(=O)[C@H](CC(=O)O)NC(=O)[C@H](Cc2ccc(O)cc2)NC(=O)[C@H](CC(N)=O)NC(=O)CSC[C@@H](C(=O)N[C@@H](C)C(N)=O)NC(=O)[C@H]([C@@H](C)O)NC(=O)[C@H](C(C)C)NC1=O [Compound 1307] ({CH2CO}-NYD[Phe(3-Me)]L[Bip][Cit][Orn][dL][Dab][Nle]VTCA-NH2; thioether N-14) | 0.0374
3 | CC(=O)Nc1ccc(-c2ccc(C[C@@H]3NC(=O)[C@H](Cc4cccc(C(F)(F)F)c4)NC(=O)[C@H](CC(=O)O)NC(=O)[C@H](Cc4ccc(C(=O)O)cc4)NC(=O)[C@H](CN4CCOCC4)NC(=O)CSC[C@@H](C(=O)N[C@@H](CCN)C(N)=O)NC(=O)[C@H](CCC(=O)O)NC(=O)[C@H](C(C)C)NC(=O)[C@H](CC4CCCCC4)NC(=O)[C@H](CCN)NC(=O)[C@@H](CC(C)C)NC(=O)[C@H](CCCN)NC(=O)[C@H](Cc4ccc(C(=O)O)cc4)NC(=O)[C@H](Cc4ccc(-c5ccccc5)cc4)NC3=O)cc2)cc1 [Example 2736] ({CH2CO}-[Ala(morpholin-4-yl)][Phe(4-COOH)]D[Phe(3-CF3)][Bip(4'-NHAc)][Bip][Phe(4-COOH)][Orn][dL][Dab][Cha]VEC[Dab]-NH2; thioether N-14) | 0.0011
4 | CC[C@H](C)[C@@H]1NC(=O)[C@H](Cc2c[nH]c3ccccc23)NC(=O)[C@H](CC(=O)O)NC(=O)[C@H](Cc2ccc(OCC(=O)O)cc2)NC(=O)[C@H](CN)NC(=O)CSC[C@@H](C(=O)N[C@@H](C)C(N)=O)NC(=O)[C@H]([C@@H](C)O)NC(=O)[C@H](C(C)C)NC(=O)[C@H](CC2CCCCC2)NC(=O)[C@H](CCN)NC(=O)[C@@H](CC(C)C)NC(=O)[C@H](CCCN)NC(=O)[C@H](CCC(=O)O)NC(=O)[C@H](Cc2ccc(-c3ccccc3)cc2)NC1=O [Compound 1717] ({CH2CO}-[Dap]Y(Carboxymethyl)DWI[Bip]E[Orn][dL][Dab][Cha]VTCA-NH2; thioether N-14) | 0.0277
5 | CC(C)C[C@@H]1NC(=O)[C@H](CCN)NC(=O)[C@@H](CC(C)C)NC(=O)[C@H](CCCN)NC(=O)[C@H](C(C)C)NC(=O)[C@H](Cc2ccc(-c3ccccc3)cc2)NC(=O)[C@H](C(C)C)NC(=O)[C@H](Cc2c[nH]c3ccccc23)NC(=O)[C@H](CC(=O)O)NC(=O)[C@H](Cc2ccc(OCC(=O)O)cc2)NC(=O)[C@H](Cc2ccc(OCC(=O)O)cc2)NC(=O)CSC[C@@H](C(=O)N[C@@H](C)C(N)=O)NC(=O)[C@H]([C@@H](C)O)NC(=O)[C@H](C(C)C)NC1=O [Compound 1245] ({CH2CO}-Y(Carboxymethyl)Y(Carboxymethyl)DWV[Bip]V[Orn][dL][Dab]LVTCA-NH2; thioether N-14) | 0.0208
6 | CC(C)C[C@H]1NC(=O)[C@H](CCCN)NC(=O)[C@H](CCCNC(N)=O)NC(=O)[C@H](Cc2ccc(-c3ccccc3)cc2)NC(=O)[C@H](C(C)C)NC(=O)[C@H](Cc2c[nH]c3ccccc23)NC(=O)[C@H](CC(=O)O)NC(=O)[C@H](Cc2ccc(OCC(=O)O)cc2)NC(=O)[C@H](CN)NC(=O)CSC[C@@H](C(=O)N[C@@H](C)C(N)=O)NC(=O)[C@H]([C@@H](C)O)NC(=O)[C@H](C(C)C)NC(=O)[C@H](Cc2ccccn2)NC(=O)[C@H](CCN)NC1=O [Compound 1349] | 0.0549
7 | COCC[C@@H]1NC(=O)[C@H](CN)NC(=O)CSC[C@@H](C(=O)N[C@@H](C)C(N)=O)NC(=O)[C@H]([C@@H](C)O)NC(=O)[C@H](C(C)C)NC(=O)[C@H](CC2CCCCC2)NC(=O)[C@H](CCN)NC(=O)[C@@H](CC(C)C)NC(=O)[C@H](CCCN)NC(=O)[C@H](CCCNC(N)=O)NC(=O)[C@H](Cc2ccc(-c3ccccc3)cc2)NC(=O)[C@H](C(C)C)NC(=O)[C@H](Cc2c[nH]c3ccccc23)NC(=O)[C@H](CC(=O)O)NC1=O [Compound 2133] ({CH2CO}-[Dap][hSer](Me)DWV[Bip][Cit][Orn][dL][Dab][Cha]VTCA-NH2; thioether N-14) | 0.0246
8 | CC(C)C[C@H]1NC(=O)[C@H](CCCN)NC(=O)CNC(=O)[C@H](Cc2ccc(-c3ccccc3)cc2)NC(=O)[C@H](C(C)C)NC(=O)[C@H](Cc2c[nH]c3ccccc23)NC(=O)[C@H](CC(=O)O)NC(=O)[C@H](Cc2ccc(OCC(=O)O)cc2)NC(=O)[C@H](C(C)O)NC(=O)CSC[C@@H](C(=O)N[C@@H](CC(N)=O)C(N)=O)NC(=O)[C@H](CO)NC(=O)[C@H](C(C)C)NC(=O)[C@H](CC2CCCCC2)NC(=O)[C@H](CCN)NC1=O (stereo partly drawn) [Compound 2566] ({CH2CO}-[Thr(3ξ)]Y(Carboxymethyl)DWV[Bip]G[Orn][dL][Dab][Cha]VSCN-NH2; thioether N-14) | 0.121
9 | Cc1cccc(C[C@@H]2NC(=O)[C@H](CC(=O)O)NC(=O)[C@H](Cc3ccc(C(=O)O)cc3)NC(=O)[C@H](CN)NC(=O)CSC[C@@H](C(=O)N[C@@H](C)C(N)=O)NC(=O)[C@H]([C@@H](C)O)NC(=O)[C@H](C(C)C)NC(=O)[C@H](CC3CCCCC3)NC(=O)[C@H](CCN)NC(=O)[C@@H](CC(C)C)NC(=O)[C@H](CCCN)NC(=O)[C@H](C(C)C)NC(=O)[C@H](Cc3ccc(-c4ccccc4)cc3)NC(=O)[C@H](C(C)C)NC2=O)c1 [Compound 1206] | 0.0089
10 | CC(C)C[C@@H]1NC(=O)[C@H](Cc2c[nH]c3ccccc23)NC(=O)[C@H](CC(=O)O)NC(=O)[C@H](Cc2ccc(O)cc2)NC(=O)[C@H](Cc2ccccc2)NC(=O)CSC[C@@H](C(=O)NCC(N)=O)NC(=O)[C@H]([C@@H](C)O)NC(=O)[C@H](C(C)C)NC(=O)[C@H](CC(C)C)NC(=O)[C@H](CC(N)=O)NC(=O)[C@@H](CC(C)C)NC(=O)[C@H](CN)NC(=O)[C@H](C(C)C)NC(=O)[C@H](Cc2ccc(-c3ccccc3)cc2)NC1=O [Compound 1070] ({CH2CO}-FYDWL[Bip]V[Dap][dL]NLVTCG-NH2; thioether N-14) | 0.0388
11 | CCC(C)[C@@H]1NC(=O)[C@H](Cc2ccc(-c3ccccc3)cc2)NC(=O)[C@H](C(C)C)NC(=O)[C@H](Cc2c[nH]c3ccccc23)NC(=O)[C@H](CC(=O)O)NC(=O)[C@H](Cc2ccc(OCC(=O)O)cc2)NC(=O)[C@H](CCN)NC(=O)CSC[C@@H](C(=O)N[C@@H](C)C(N)=O)NC(=O)[C@H](C(C)O)NC(=O)[C@H](C(C)C)NC(=O)[C@H](CC(C)C)NC(=O)[C@H](CCN)NC(=O)[C@@H](CC(C)C)NC(=O)[C@H](CCCN)NC1=O (stereo partly drawn) [Compound 2507] ({CH2CO}-[Dab]Y(Carboxymethyl)DWV[Bip][Ile(3ξ)][Orn][dL][Dab]LV[Thr(3ξ)]CA-NH2; thioether N-14) | 0.0208
12 | CC(C)C[C@H]1NC(=O)[C@H](CCCN)NC(=O)[C@H](C(C)C)NC(=O)[C@H](Cc2ccc(-c3ccccc3)cc2)NC(=O)[C@H](C(C)C)NC(=O)[C@H](Cc2cccc(C(F)(F)F)c2)NC(=O)[C@H](CC(=O)O)NC(=O)[C@H](Cc2ccc(OCC(=O)O)cc2)NC(=O)[C@H](Cc2ccc(OCC(=O)O)cc2)NC(=O)CSC[C@@H](C(=O)N[C@@H](C)C(N)=O)NC(=O)[C@H]([C@@H](C)O)NC(=O)[C@H](C(C)C)NC(=O)[C@H](CC2CCCCC2)NC(=O)[C@H](CCN)NC1=O [Compound 1574] | 0.0304
13 | Cc1cccc(C[C@@H]2NC(=O)[C@H](CC(=O)O)NC(=O)[C@H](Cc3ccc(OCC(=O)O)cc3)NC(=O)[C@H](Cc3ccncc3)NC(=O)CSC[C@@H](C(=O)N[C@@H](CCN)C(N)=O)NC(=O)[C@H](CO)NC(=O)[C@H](C(C)(C)O)NC(=O)[C@H](CC3CCCCC3)NC(=O)[C@H](CCN)NC(=O)[C@@H](CC(C)C)NC(=O)[C@H](CCC(N)=O)NC(=O)[C@H](Cc3ccc(C(=O)O)cc3)NC(=O)[C@H](Cc3ccc(-c4ccccc4)cc3)NC(=O)[C@H](Cc3ccc(C(=O)O)cc3)NC2=O)c1 [Compound 2643] ({CH2CO}-[4Pal]Y(Carboxymethyl)D[Phe(3-Me)][Phe(4-COOH)][Bip][Phe(4-COOH)]Q[dL][Dab][Cha][Val(3-OH)]SC[Dab]-NH2; thioether N-14) | 0.0073
14 | CC[C@H](C)[C@@H]1NC(=O)[C@H](Cc2ccc(-c3ccccc3)cc2)NC(=O)[C@H](c2ccccc2)NC(=O)[C@H](Cc2c[nH]c3ccccc23)NC(=O)[C@H](CC(=O)O)NC(=O)[C@H](Cc2ccc(OCC(=O)O)cc2)NC(=O)[C@H](CN)NC(=O)CSC[C@@H](C(=O)N[C@@H](C)C(N)=O)NC(=O)[C@H]([C@@H](C)O)NC(=O)[C@H](C(C)C)NC(=O)[C@H](CC2CCCCC2)NC(=O)[C@H](CCN)NC(=O)[C@@H](CC(C)C)NC(=O)[C@H](CCCN)NC1=O [Compound 1728] ({CH2CO}-[Dap]Y(Carboxymethyl)DW[Phg][Bip]I[Orn][dL][Dab][Cha]VTCA-NH2; thioether N-14) | 0.0292
15 | C#CC[C@H](NC(=O)[C@@H](C)NC(=O)[C@@H]1CSCC(=O)N[C@@H](Cc2ccncc2)C(=O)N[C@@H](Cc2ccc(OCC(=O)O)cc2)C(=O)N[C@@H](CC(=O)O)C(=O)N[C@@H](Cc2cccc(C)c2)C(=O)N[C@@H](Cc2ccc(OCC(=O)O)cc2)C(=O)N[C@@H](Cc2ccc(-c3ccccc3)cc2)C(=O)N[C@@H](Cc2ccc(OCC(=O)O)cc2)C(=O)N[C@@H](CCCN)C(=O)N[C@H](CC(C)C)C(=O)N[C@@H](CCN)C(=O)N[C@@H](CC2CCCCC2)C(=O)N[C@@H](C(C)(C)O)C(=O)N[C@@H](CO)C(=O)N1)C(N)=O [Compound 2328] ({CH2CO}-[4Pal]Y(Carboxymethyl)D[Phe(3-Me)]Y(Carboxymethyl)[Bip]Y(Carboxymethyl)[Orn][dL][Dab][Cha][Val(3-OH)]SC[dA][Pra]-NH2; thioether N-14) | 0.632

From US20250163104A1, “MACROCYCLIC IMMUNOMODULATORS” (priority 2021, published 2025)
